Source: US10118934B2 (Wisconsin Alumni Research Foundation, priority 2014, dated 2018)
≈ marks a conversion by molar mass, not a printed value. Where “and” joins values, the source holds several entries; their conditions need not be identical. Equal values may be shown once. Entries after “also recorded” stand apart in the source; their conditions may differ. Read-outs that look alike come from different tables or passages of the source.

Assays:
[1] = biological target: T1, MtUGM (Mycobacterium tuberculosis, UniProt P9WIQ1); conditions: compound library screened against MtUGM; cited from earlier work
[2] = biological target: T2, KpUGM (Klebsiella pneumoniae, UniProt Q48485); test: biochemical; format: binding; conditions: for Kd: probe displacement in competitive-binding FP assay
T2 construct: His-tag; made in house; host or cells: E. coli BL21(DE3)
Description: A fluorescence polarization assay was used to measure ligand binding to KpUGM [Soltero-Higgin et al. 2004, Carlson et al. 2006] Tumbling of the fluorescein-UDP conjugated probe was measured on a Tecan M1000 microplate reader, exciting with 470 nm light and monitoring emission at 525 nm. Each condition was tested in triplicate in the presence of 220 nM KpUGM and 23.3 nM of the probe. Data was fit with a one-site binding nonlinear regression in GraphPad Prism 6.

[3] = biological target: T2, KpUGM; format: biochemical; conditions: for effect of detergent on KpUGM inhibition: presence and absence of 0.025% Tween 80; for Ki: Lineweaver-Burk analysis, competitive inhibition
Description: Anal Biochem, 1996: p. […] J Med Chem, 2002. 45(8): p. 1712-22] we repeated the assay in the presence of detergent (0.025% Tween 80).
(§1) Enzymatic activity of recombinant UGM was monitored using an HPLC-based assay [Wesener et al., 2013; Lee et al. 1996; Zhang, Q. and H.-w. […] J. Amer. Chem. Soc., 2000. 122(38): p. 9065-9070]. Reactions were performed in duplicate at 22° C. in 50 mM NaH2PO4 buffer (pH 7) with 20 nM enzyme and 20 mM fresh sodium dithionite. Small molecules were added from DMSO stocks to a final concentration of 1% DMSO. Concentration of UDP-Galf [Marlow, A. L. and L. L. Kiessling, Improved Chemical Synthesis of UDP-Galactofuranose. Org Lett, 2001. 3(16): p. 2517-2519] was held constant at the Km of the UGM homolog being analyzed, except for generation of Lineweaver-Burk plots. Reaction time and substrate concentration were varied for Lineweaver-Burk analysis, and each condition was tested in triplicate. Quenched reactions were run through a CarboPac PA-100 column (Thermo Scientific) on an Agilent 1260 Infinity HPLC using an isocratic elution of 200 mM ammonium acetate (pH 8) to separate substrate and product peaks.

[4] = dynamic light scattering (DLS) detection of colloidal aggregation; format: physicochemical
Description: To evaluate aggregation by DLS compounds were diluted from concentrated stocks in DMSO into filtered 50 mM potassium phosphate, pH 7.0. The final DMSO concentration was 1%, and compound concentrations were usually 100 μM. Samples were run in duplicates. All measurements were made at room temperature using a DynaPro MS/X (Wyatt Technology) with a 55 mW laser at 826.6 nm. The laser power was 100%, and the detector angle was 90°.

[5] = biological target: AmpC β-lactamase (Escherichia coli, UniProt P00811); format: biochemical; conditions: for inhibition of AmpC β-lactamase: 100 μM
Description: (§2) Compounds were tested for inhibition of Malate Dehydrogenase and AmpC β-lactamase as reported. Assays were performed in 50 mM potassium phosphate buffer, pH 7.0 at 25° C. For AmpC the molecules were mixed with buffer and CENTA substrate (50 μM; Tydock Pharma; Modena, Italy) to a final concentration of 1% DMSO (v/v). Reactions were initiated by addition of β-Lactamase (1 nM). Change in absorbance was monitored at 405 nm for 3 minutes. For Malate Dehydrogenase assay (MDH; Sigma Cat# M-7032), the molecule was mixed with buffer and 2 nM final concentration of the enzyme to a final concentration of 1% DMSO (v/v) and were incubated for five minutes. MDH reactions were started by adding substrates: Oxaloacetic acid (20 mM stock in buffer, prepared fresh daily; Sigma Cat# O4126) to a final concentration 200 μM and NADH (20 mM stock in buffer—prepare fresh daily; Sigma Cat# N-4505) to a final concentration 200 μM. Change in absorbance was monitored at […] for 2.5 minutes. Absorbance was monitored on an HP 8453 UV—visible spectrophotometer (Agilent, Technologies, Santa Clara, Calif.). The assays were performed in duplicate in methacrylate disposable cuvettes.

[6] = system: HEK293 cells; test: cytotoxicity assay (CellTiter-Glo); format: cell-based
Description: Four thousand HEK 293T cells were added to wells of a sterile 96-well plate in 99 μl DMEM with 10% FBS. The plate was incubated for 24 hours at 37° C. with 5% CO2 to allow cells to attach. Cells were then treated with serially diluted small molecules or a vehicle control. The final DMSO concentration was 1% in each well. After 24 hours of incubation, viability of the treated cells was analyzed using CellTiter-Glo Luminescent Cell Viability Assay (Promega). Viability readings were normalized to DMSO control wells.

[7] = biological target: T1, MtUGM; test: HPLC-based UGM activity assay, homolog specificity; format: biochemical; conditions: 100 μM compound
[8] = biological target: T3, CdUGM (Corynebacterium diphtheriae, UniProt Q6NER4); test: HPLC-based UGM activity assay, homolog specificity; format: biochemical, C. diphtheriae; conditions: 100 μM compound
T3 construct: Open reading frame coding for residue 18-404 of CdUGM was amplified; His-tag with TEV cleavage site (N); made in house; host or cells: Escherichia coli ER2523
Description: The specificity of in vitro UGM inhibition was assessed using purified recombinant UGM homologs. MtUGM and C. diptheriae UGM (CdUGM) share about 43% sequence identity with KpUGM, and 76% identity with each other. However, active site residues are highly conserved between the homologs. […] This trend was consistent for other analogs from this series (FIG. 14).
as §1

[9] = system: M. smegmatis; test: microbroth dilution assay with alamar Blue readout; format: cell-based, Mycobacterium smegmatis; conditions: liquid culture
[10] = biological target: T4, Malate Dehydrogenase (MDH) (Thermus thermophilus, UniProt P10584); test: aggregation counter screen, malate dehydrogenase inhibition; format: biochemical
T4 construct: purchased Sigma M-7032
Description: as §2

[11] = system: B. subtilis; test: broth microdilution, control strain without UGM; format: cell-based; conditions: control strain without UGM ortholog
[12] = system: B strain E. coli; test: broth microdilution, control strain without UGM; format: cell-based; conditions: control strain without UGM ortholog
[13] = system: E. coli; test: disk diffusion assay; format: cell-based; conditions: solid media, tested concentration
Description: J Bacteriol, 1989. 171(3): p. […] Cells were incubated at 37° C. overnight.

[14] = system: M. smegmatis; test: disk diffusion assay; conditions: solid media, 100 nmol per disk
Description: (§3) 1-8], and M. smegmatis were grown, the former two species in LB broth and the later in 7H9 Middlebrook media. Cells were diluted to an OD600 of 0.2 in fresh media and spread (100 μL) onto LB agar plates. Following an hour of incubation at 37° C., sterile cloning disks (3.2 mm diameter, Scienceware) impregnated with 100 nmol of compound or 2 μL of DMSO were placed on the surface of the inoculated solid media. Cells were incubated at 37° C. overnight. Plates with M. smegmatis were incubated 3 additional days at room temperature. Zones of inhibition were measured from the outer edge of the cloning disk to the border of cell growth.

[15] = system: B. subtilis; test: disk diffusion assay; conditions: solid media, 100 nmol per disk
Description: as §3

AmpC β-lactamase, sequence (P00811 20-377): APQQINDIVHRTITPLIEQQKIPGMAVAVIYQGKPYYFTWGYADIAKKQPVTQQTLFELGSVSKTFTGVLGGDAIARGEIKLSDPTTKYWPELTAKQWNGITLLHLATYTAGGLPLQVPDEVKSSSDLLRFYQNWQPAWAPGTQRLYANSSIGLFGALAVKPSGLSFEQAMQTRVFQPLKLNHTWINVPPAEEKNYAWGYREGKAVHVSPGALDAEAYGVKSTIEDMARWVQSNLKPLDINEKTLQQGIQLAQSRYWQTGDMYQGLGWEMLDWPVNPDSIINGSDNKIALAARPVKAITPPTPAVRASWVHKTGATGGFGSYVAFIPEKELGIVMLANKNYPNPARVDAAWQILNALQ
T1 sequence (P9WIQ1 whole entry): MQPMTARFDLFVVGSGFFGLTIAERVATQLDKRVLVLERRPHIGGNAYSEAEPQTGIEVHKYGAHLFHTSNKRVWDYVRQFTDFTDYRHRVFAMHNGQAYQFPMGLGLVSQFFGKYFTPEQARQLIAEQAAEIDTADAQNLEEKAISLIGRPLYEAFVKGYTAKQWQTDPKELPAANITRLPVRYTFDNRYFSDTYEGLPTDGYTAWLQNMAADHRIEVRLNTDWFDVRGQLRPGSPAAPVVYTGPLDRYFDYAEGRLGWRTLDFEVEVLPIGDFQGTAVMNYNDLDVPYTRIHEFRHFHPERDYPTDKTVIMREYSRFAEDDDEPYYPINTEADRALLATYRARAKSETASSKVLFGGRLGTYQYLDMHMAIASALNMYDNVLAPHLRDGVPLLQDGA
T4 sequence (P10584 whole entry): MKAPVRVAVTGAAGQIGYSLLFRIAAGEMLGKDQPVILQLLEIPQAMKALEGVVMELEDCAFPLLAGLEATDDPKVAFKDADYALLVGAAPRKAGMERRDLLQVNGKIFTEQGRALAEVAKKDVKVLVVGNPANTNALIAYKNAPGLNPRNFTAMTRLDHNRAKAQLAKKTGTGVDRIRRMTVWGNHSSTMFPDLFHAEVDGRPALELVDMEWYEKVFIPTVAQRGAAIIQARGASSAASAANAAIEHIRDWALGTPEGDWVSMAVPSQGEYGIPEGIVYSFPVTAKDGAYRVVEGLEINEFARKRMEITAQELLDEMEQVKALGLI
T2 sequence (Q48485 24-384): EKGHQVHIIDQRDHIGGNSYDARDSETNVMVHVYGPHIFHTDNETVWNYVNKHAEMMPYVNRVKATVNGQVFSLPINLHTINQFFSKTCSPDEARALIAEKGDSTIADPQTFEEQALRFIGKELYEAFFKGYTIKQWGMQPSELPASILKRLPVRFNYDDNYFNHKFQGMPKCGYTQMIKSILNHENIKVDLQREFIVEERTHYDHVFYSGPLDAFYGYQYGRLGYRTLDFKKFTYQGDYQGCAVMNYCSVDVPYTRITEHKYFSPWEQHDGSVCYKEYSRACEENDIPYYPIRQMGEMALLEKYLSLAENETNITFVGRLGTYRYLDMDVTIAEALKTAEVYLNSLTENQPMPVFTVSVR
T3 sequence (Q6NER4 entry or part of it): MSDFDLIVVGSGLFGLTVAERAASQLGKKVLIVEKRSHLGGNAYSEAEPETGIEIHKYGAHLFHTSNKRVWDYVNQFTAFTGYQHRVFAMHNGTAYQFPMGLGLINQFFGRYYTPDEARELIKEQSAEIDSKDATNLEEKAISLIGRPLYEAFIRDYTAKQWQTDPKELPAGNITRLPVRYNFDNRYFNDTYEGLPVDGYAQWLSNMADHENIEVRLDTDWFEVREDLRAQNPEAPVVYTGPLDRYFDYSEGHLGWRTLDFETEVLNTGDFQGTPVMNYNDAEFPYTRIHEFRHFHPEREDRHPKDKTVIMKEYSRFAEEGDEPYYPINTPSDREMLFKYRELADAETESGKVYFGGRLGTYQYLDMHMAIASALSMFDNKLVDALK

O=C(O)CCC(=O)N1N=C(c2ccccc2)CC1c1cccs1 (stereo not shown) [Compound 3]
detection as hit in HTS [1]: not detected by HTS

O=C(O)CC1Sc2nnc(-c3ccco3)n2N=C1c1ccccc1 (stereo not shown) [Compound 6]
Kd [2]: 62 µM and 43 µM | effect of detergent on KpUGM inhibition ([3]; 100 μM compound): insensitive to detergent | Ki [3]: 78 µM | colloidal aggregation by DLS ([4]; 100 μM): do not form detectable colloids; also recorded: do not aggregate; also recorded: no sign of colloidal aggregation | inhibition of AmpC β-lactamase [5]: do not display any inhibition | cellular toxicity ([6]; HEK293 cells): no significant cellular toxicity

C=CCNc1nc(-c2cc(C)n(CCC(=O)O)c2C)cs1 [Compound 10]
Kd [2]: 9 µM and 6 µM | effect of detergent on KpUGM inhibition ([3]; 100 μM compound): insensitive to detergent | colloidal aggregation by DLS ([4]; 100 μM): do not form detectable colloids; also recorded: no sign of colloidal aggregation | inhibition of AmpC β-lactamase [5]: do not display any inhibition

Cc1cc(-c2csc(NC(C)c3ccccc3)n2)c(C)n1CCC(=O)O (stereo not shown) [Compound 14]
binding compared with compound 10 ([2]; FP assay): slightly tighter binding than compound 10 | Kd [2]: 4.5 µM | KpUGM inhibition compared with lead compound 10 ([3]; in vitro, dose-dependent): improved KpUGM inhibition; also recorded: increased dose-dependent KpUGM inhibition

O=C(O)CC1Sc2nnc(Cc3ccc(F)cc3)n2N=C1c1ccccc1 (stereo not shown) [Compound 19]
Kd [2]: 15 µM | colloidal aggregation by DLS ([4]; 100 μM): form colloidal aggregates; also recorded: do form colloids | colloidal aggregation by DLS ([4]; high concentrations): show aggregation

O=C(O)CC1Sc2nnc(-c3cccs3)n2N=C1c1ccc(Cl)cc1 (stereo not shown) [Compound 22]
Kd [2]: 9 µM and 9.2 µM | Ki [3]: 7 µM | inhibition of MtUGM [7]: 19% | inhibition of CdUGM [8]: 38% | colloidal aggregation by DLS ([4]; 100 μM): did not show any aggregation; also recorded: do not aggregate; also recorded: no sign of colloidal aggregation | M. smegmatis growth repression ([9]; tested concentrations): no M. smegmatis growth repression

Cc1ccc(C2=Nn3c(COc4ccc(Cl)cc4)nnc3SC2CC(=O)O)cc1 (stereo not shown) [Compound 24]
Kd [2]: 9 µM and 9.2 µM | colloidal aggregation by DLS ([4]; 100 μM): form colloidal aggregates; also recorded: do form colloids | colloidal aggregation by DLS ([4]; high concentrations): show aggregation | detection as hit in HTS [1]: not detected by HTS

O=C(O)CC1Sc2nnc(Cc3ccc(Br)cc3)n2N=C1c1ccc(Cl)cc1 (stereo not shown) [Compound 30]
Kd [2]: 4.5 µM and 4.7 µM | KpUGM activity in presence of compound ([3]; 50 μM compound): no measurable activity | KpUGM activity in presence of compound ([3]; 100 μM compound): no measurable activity | selectivity between UGM homologs ([3]; KpUGM vs MtUGM and CdUGM): selective for KpUGM over MtUGM and CdUGM | Ki [3]: 1.1 µM | potency relative to compound 22 in vitro ([3]; from Ki values): about 5 fold | colloidal aggregation by DLS ([4]; 10 μM): does not aggregate | colloidal aggregation by DLS ([4]; 100 μM): forms colloidal aggregates; also recorded: do form colloids | colloidal aggregation by DLS ([4]; high concentrations): show aggregation | inhibition of AmpC ([5]; high concentrations): non-specific inhibition | effect of detergent on MDH inhibition ([10]; addition of detergent): fully rescued by the addition of detergent; also recorded: reversible by the addition of detergent | IC50 ([10]; full dose response curve, no detergent): 55.7 µM | inhibition of MDH ([10]; high concentrations): non-specific inhibition | MIC ([9]; 46 hours of growth, alamar blue): 20 µM (≈ 9.56 µg/mL) | MIC [11]: 500 µM (≈ 239 µg/mL) | MIC [12]: > 500 µM | cell-killing in disk diffusion [13]: No cell-killing | difference between LD50 and MIC for M. smegmatis [6]: 5 fold | cellular toxicity ([6]; HEK293 cells): only mildly toxic | LD50 ([6]; HEK293 cells, 24 hours): ~100 µM | zone of growth inhibition, comparison within series [14]: outperformed all other compounds of the series | zone of growth inhibition [15]: significantly smaller than that observed for M. smegmatis
